Measured values reported in patent US20250170154A1 (GreenStone Biosciences, Inc., priority 2023, published 2025).
Where two headings read alike, the source gives them in different places.

Experiments:
[1] = Approximate solubility in selected solvents by visual observation; type: physicochemical; conditions: thermodynamic from solid
Procedure: Solubility testing of compound 2 was carried out by adding 20 μL aliquots (to a maximum of 1 mL) of selected solvents (water, methanol, DCM, and THF) to about 5 mg samples of compound 2 at 25 C with vortexing and sonication; and the approximate solubility determined by visual observation. Similar testing was carried out at 50 C, using about 10 mg samples of compound 2.

[2] = Thermodynamic solubility in FaSSIF; type: physicochemical; conditions: thermodynamic from solid, room temperature, 24 hours shaking
Procedure: After shaking, the samples were centrifuged at 25° C. for 20 minutes at 4000 rpm. Filtrates were prepared using the Whatman Mini-UniPrep Syringeless Filter Device (PTFE filter media with polypropylene housing, pore size 0.45 μm) from Cytiva, and dilutions were performed as required. Quantification of all samples was carried out using an LC-UV system.

[3] = Stability in simulated gastric fluid (SGF); type: in vitro ADME; conditions: SGF pH 1.2, 37° C., 2 μM
Procedure: The stability of compounds 1 to 4, and the control compound omeprazole, were measured in simulated gastric fluid (SGF: 0.2% w/v sodium chloride, 0.7% v/v hydrochloric acid, and 0.32% w/v pepsin in deionized water, pH 1.2±0.05). Stock solutions of the compounds (10 mM) were diluted to 200 μM in DMSO, then duplicate 2 μL aliquots added to 96-well plates for time points 0, 1, 2, 6, and 24 hours. SGF (198 μL) was added to all wells except those for time 0, to give a starting compound concentration of 2 μM; and the samples were incubated at 37° C. with agitation at 600 rpm for the prescribed times. After incubation, 200 μL of each sample was extracted and mixed with 400 μL cold ACN containing 200 ng/mL tolbutamide and labetalol as internal standards. The samples were centrifuged at […] for 20 minutes at 4° C., and the supernatants (60 μL) each diluted with purified water (180 μL) for LC/MS/MS analysis. The percentage of the test compound remaining at each time point was calculated based on the ratio of the peak area of the analyte to the internal standards.

[4] = Intestinal stability, human intestinal S9; type: in vitro ADME
Procedure: (§1) The stability of compounds 1 and 2, and the control compound 7-hydroxycoumarin, were measured using human, rat, and mouse intestinal S9 fractions (Xenotech). Test compound working solutions were prepared by diluting 5 μL of 10 mM stock solutions in DMSO with 495 μL AN. S9 solutions were prepared by diluting the obtained S9 solutions to 1.0 mg/mL in 100 mM potassium phosphate buffer at pH 7.4 containing 10 mM D-saccharic acid-1,4-lactone. An Apricot automation workstation was used to add 100 μL/well of S9 solution to all reaction plates (Blank, T0, T5, T15, T30, T45, T60 and NCF60); 2 μL/well of compound working solutions were added to all 96-well reaction plates except the blank (T0, T5, T15, T30, T45, T60, and NCF60); 600 μL/well of stop solution (4° C. ACN containing 200 ng/mL tolbutamide and 200 ng/mL labetalol as internal standards) was added to the T0 reaction plate; all plates were pre-incubated at 37° C. for 10 minutes; a cofactor regenerating system (98 μL/well) was added, excluding the NCF60 plate which instead received 98 μL/well of 100 mM potassium phosphate buffer. All plates were then incubated at 37° C. To terminate reactions, 600 μL/well of stop solution was applied at specific end time points. After sealing and a 10-minute shaking, plates were centrifuged at 4000 rpm and 4° C. for 20 minutes. Concurrently, 300 μL/well of HPLC grade water was loaded onto eight new 96-well bioanalysis plates. Post-centrifugation, 100 μL supernatant from each reaction plate was transferred to its corresponding bioanalysis plate, shaken for 10 minutes, and then subjected to LC-MS/MS analysis (Shimadzu LC-40D LC system coupled to a Sciex Qtrap 6500 Plus mass spectrometer, using both positive and negative ion modes).

[5] = Intestinal stability, mouse intestinal S9; type: in vitro ADME; conditions: intestinal S9 fraction
Procedure: as §1

[6] = Intestinal stability, rat intestinal S9; type: in vitro ADME
Procedure: as §1

[7] = Conjugate formation in intestinal S9 incubations; type: in vitro ADME, human, rat, mouse
Procedure: as §1, with “Concurrently, 300 μL/well of HPLC grade water was loaded onto eight new 96-well bioanalysis plates. Post-centrifugation, 100 μL supernatant from each reaction plate was transferred to its corresponding bioanalysis plate, shaken for 10 minutes, and then subjected to LC-MS/MS analysis (Shimadzu LC-40D LC system coupled to a Sciex Qtrap 6500 Plus mass spectrometer, using both positive and negative ion modes).” left out

[8] = Pharmacokinetics in the rat, dosing in solution; conditions: rat, in vivo, 25 mg/kg
[9] = Pharmacokinetics in the rat, solid form (powder in mini-capsules); type: in vivo; conditions: rat, in vivo
log P = type: physicochemical
mdx mice = assay: mdx mice, blood cytokine analysis; type: in vivo, mouse; conditions: 20 mg/Kg/day by gavage, four-month-old mdx mice
From the text: Dis., 21, 579-589 (2011), “Duchenne muscular dystrophy (DMD) is the most common lethal X-linked recessive disorder, affecting 1 in 3500 live male births. DMD children show early symptoms of muscle degeneration, frequently develop contractures, and lose the ability to walk by 13 years of age. With disease. progression, most patients succumb to death from respiratory failure and cardiac dysfunction in early adulthood. The primary cause of this disease stems from the lack of the protein dystrophin, which is essential for the structural and functional integrity of muscle membrane. Dystrophin absence results in membrane damage, allowing massive infiltration of immune cells, chronic inflammation, necrosis, and severe muscle degeneration . . . . […] The genistein phosphate derivatives of this invention are therefore expected to be useful for the treatment of subjects with Duchenne muscular dystrophy.

16 month-old mice = 16 month-old mice with 7-day osmotic pumps; type: in vivo, mouse
Procedure: Three groups of 16 month-old mice were implanted with 7-day osmotic pumps dispensing vehicle, 0.24 mg/Kg/day, and 2.4 mg/Kg/day of compound 2. All three groups of animals lost ˜1% of body weight over the 7 days.

[10] = intestinal S9 fraction, pH 7.4, read-out: intrinsic clearance rate
[11] = 0.24 and 2.4 mg/Kg/day, 7-day osmotic pumps

Structure (SMILES): O=c1c(-c2ccc(O)cc2)coc2cc(OCOP(=O)(O)O)cc(O)c12 [Compound 2, ((5-Hydroxy-3-(4-hydroxyphenyl)-4-oxo-4H-chromen-7-yl)oxy)methyl dihydrogen phosphate]
- solubility ([1]; 25 °C, organic solvent or mixture, THF, both 25 and 50° C., read-out: solubility in THF): 125000 to 250000 µg/mL
- solubility ([1]; 25 °C, organic solvent or mixture, methanol, both 25 and 50° C., read-out: solubility in methanol): > 250000 µg/mL
- solubility ([1]; organic solvent or mixture, DCM, 25° C., read-out: solubility in DCM): < 5000 µg/mL
- solubility ([1]; water, 25° C., approximate, visual observation, read-out: solubility in water): < 5000 µg/mL
- solubility ([1]; water, 50° C., approximate, visual observation, read-out: solubility in water): ~5000 µg/mL
- solubility at 24 h ([2]; read-out: Solubility): 7.82 mM
- solubility at 24 h ([2]; read-out: Solubility (μg/mL)): 2970 µg/mL
- Percentage remaining at time: 1 hour ([3]; 1 hour): 100%
- Percentage remaining at time: 2 hours ([3]; 2 hours): 104%
- Percentage remaining at time: 6 hours ([3]; 6 hours): 116%
- Percentage remaining at time: 24 hours ([3]; 24 hours): 113%
- Percentage remaining at time: 0 ([3]; time 0): 100%
- normalized control factor remaining [4]: 56.6%
- half-life at 1 µM ([4]; intestinal S9 fraction, pH 7.4): 26.8 min
- microsomal CLint at 1 µM [4, 10]: 51.7 µL/min/mg
- half-life at 1 µM ([5]; pH 7.4): 68.1 min
- microsomal CLint at 1 µM ([5]; pH 7.4, read-out: intrinsic clearance rate): 20.3 µL/min/mg
- normalized control factor remaining [6]: 68.6%
- half-life at 1 µM ([6]; intestinal S9 fraction, pH 7.4): 48.3 min
- microsomal CLint at 1 µM [6, 10]: 28.7 µL/min/mg
- formation of glucuronidation, sulfation, and glutathione conjugates [7]: noticeable absence
- Cmax ([8]; male, SD): ~30 ng/mL
- Tmax ([8]; male, SD): ~8 min
- decline of plasma concentration of dosed compound [8]: very rapid decline in concentration
- half-life ([9]; male, SD, po): ~120 min
- Tmax ([9]; male, SD, po, 100 mg/kg): ~10 min
- decline of plasma concentration of dosed compound ([9]; 100 mg/kg): slower rapid decline in concentration than for solution dosing
- logP (log P): 1.59
- Leptin in blood (mdx mice): significantly reduced
- blood cytokines BAFF, BTC, CCL7, CCL11, CSF3, CXCL10, IL-1α, IL-1β, IL-5, IL-10, IL-18, IL-19, IL-2RA, IL-7RA, LIF, MIP-10, MIP2, TNF-α, VEGF (mdx mice): appeared to be reduced
- fasting blood glucose relative to the control group (16 month-old mice; 2.4 mg/Kg/day group): significant decrease
- body weight lost over the 7 days (16 month-old mice; 0.24 and 2.4 mg/Kg/day groups (same as vehicle group)): ~1%
- IL-13 blood levels (16 month-old mice; [11]): reduced in a dose-dependent manner
- Leptin blood levels (16 month-old mice; [11]): reduced in a dose-dependent manner
- fasting blood glucose relative to the control group (16 month-old mice; both treatment groups, 0.24 and 2.4 mg/Kg/day, 7-day osmotic pumps): lowered
